Tests used:
Type in all cases: functional
Mus musculus [1] = experiment: In vivo antitumor activity against P388 Lymphocytic Leukemia in mice at 400 mg/kg expressed as T/C value w.r.t. compound 6
Mus musculus [2] = experiment: In vivo antitumor activity against P388 Lymphocytic Leukemia in mice at 800 mg/kg expressed as T/C value w.r.t. compound 6
Mus musculus [3] = experiment: In vivo antitumor activity against P388 Lymphocytic Leukemia measured as Survivors on day 5 at 800 mg/kg, w.r.t. compound 6; 4/4
Mus musculus [4] = experiment: In vivo antitumor activity against P388 Lymphocytic Leukemia in mice at 200 mg/kg expressed as T/C value w.r.t. compound 6
Mus musculus [5] = experiment: In vivo antitumor activity against P388 Lymphocytic Leukemia measured as Survivors on day 5 at 200 mg/kg, w.r.t. compound 6; 4/4
Mus musculus [6] = experiment: In vivo antitumor activity against P388 Lymphocytic Leukemia measured as Survivors on day 5 at 400 mg/kg, w.r.t. compound 6; 4/4
Mus musculus [7] = experiment: In vivo antitumor activity against P388 Lymphocytic Leukemia in mice at 17.75 mg/kg expressed as T/C value
Mus musculus [8] = experiment: In vivo antitumor activity against P388 Lymphocytic Leukemia measured as Survivors on day 5 at 8.88 mg/kg; 6/6
Mus musculus [9] = experiment: In vivo antitumor activity against P388 Lymphocytic Leukemia in mice at 8.88 mg/kg expressed as T/C value
Mus musculus [10] = experiment: In vivo antitumor activity against P388 Lymphocytic Leukemia measured as Survivors on day 5 at 35.5 mg/kg; 6/6
Mus musculus [11] = experiment: In vivo antitumor activity against P388 Lymphocytic Leukemia in mice at 71 mg/kg expressed as T/C value
Mus musculus [12] = experiment: In vivo antitumor activity against P388 Lymphocytic Leukemia measured as Survivors on day 5 at 71 mg/kg; 5/6
Mus musculus [13] = experiment: In vivo antitumor activity against P388 Lymphocytic Leukemia measured as Survivors on day 5 at 17.75 mg/kg; 5/6
Mus musculus [14] = experiment: In vivo antitumor activity against P388 Lymphocytic Leukemia in mice at 35.5 mg/kg expressed as T/C value
Mus musculus [15] = experiment: In vivo antitumor activity against P388 Lymphocytic Leukemia measured as Survivors on day 5 at 15.5 mg/kg; 5/6
Mus musculus [16] = experiment: In vivo antitumor activity against P388 Lymphocytic Leukemia in mice at 31 mg/kg expressed as T/C value
Mus musculus [17] = experiment: In vivo antitumor activity against P388 Lymphocytic Leukemia measured as Survivors on day 5 at 31 mg/kg; 6/6
Mus musculus [18] = experiment: In vivo antitumor activity against P388 Lymphocytic Leukemia measured as Survivors on day 5 at 7.75 mg/kg; 6/6
Mus musculus [19] = experiment: In vivo antitumor activity against P388 Lymphocytic Leukemia in mice at 15.5 mg/kg expressed as T/C value
Mus musculus [20] = experiment: In vivo antitumor activity against P388 Lymphocytic Leukemia in mice at 7.75 mg/kg expressed as T/C value
Mus musculus [21] = experiment: In vivo antitumor activity against P388 Lymphocytic Leukemia measured as survivors on day 5 at 62 mg/kg; 6/6
Mus musculus [22] = experiment: In vivo antitumor activity against P388 Lymphocytic Leukemia in mice at 62 mg/kg expressed as T/C value
Mus musculus [23] = experiment: In vivo antitumor activity against P388 Lymphocytic Leukemia measured as Survivors on day 5 at 46 mg/kg; 6/6
Mus musculus [24] = experiment: In vivo antitumor activity against P388 Lymphocytic Leukemia in mice at 23 mg/kg expressed as T/C value
Mus musculus [25] = experiment: In vivo antitumor activity against P388 Lymphocytic Leukemia in mice at 11.50 mg/kg expressed as T/C value; settings: dose 11.5 mg/kg
Mus musculus [26] = experiment: In vivo antitumor activity against P388 Lymphocytic Leukemia in mice at 46 mg/kg expressed as T/C value
Mus musculus [27] = experiment: In vivo antitumor activity against P388 Lymphocytic Leukemia in mice at 92 mg/kg expressed as T/C value
Mus musculus [28] = experiment: In vivo antitumor activity against P388 Lymphocytic Leukemia measured as Survivors on day 5 at 11.50 mg/kg; 6/6; settings: dose 11.5 mg/kg
Mus musculus [29] = experiment: In vivo antitumor activity against P388 Lymphocytic Leukemia measured as Survivors on day 5 at 23 mg/kg; 6/6
Mus musculus [30] = experiment: In vivo antitumor activity against P388 Lymphocytic Leukemia measured as Survivors on day 5 at 92 mg/kg; 6/6
Mus musculus [31] = experiment: Weight difference when tested in vivo for antitumor activity against P388 Lymphocytic Leukemia
Mus musculus [32] = experiment: In vivo antitumor activity against P388 Lymphocytic Leukemia measured as Survivors on day 5 at 800 mg/kg, w.r.t. compound 6; 6/6
Mus musculus [33] = experiment: In vivo antitumor activity against P388 Lymphocytic Leukemia in mice at 100 mg/kg expressed as T/C value w.r.t. compound 6
Mus musculus [34] = experiment: In vivo antitumor activity against P388 Lymphocytic Leukemia measured as Survivors on day 5 at 200 mg/kg, w.r.t. compound 6; 5/6
Mus musculus [35] = experiment: In vivo antitumor activity against P388 Lymphocytic Leukemia measured as Survivors on day 5 at 400 mg/kg, w.r.t. compound 6; 6/6
Mus musculus [36] = experiment: In vivo antitumor activity against P388 Lymphocytic Leukemia measured as Survivors on day 5 at 100 mg/kg, w.r.t. compound 6; 6/6

CC(C)C(O)(C(=O)OC1CCN2CCC(CO)C12)C(C)O (centres undefined) was tested, and the T/C (Mus musculus [1]) was 123%, the T/C (Mus musculus [2]) was 180% and the Survivors (Mus musculus [3]) was 4. It also gave a T/C (Mus musculus [4]) of 126%, a Survivors (Mus musculus [5]) of 4 and a Survivors (Mus musculus [6]) of 4.

Work on CCC(O)(C(=O)OCC1=CC[N+]2([O-])CC[C@H](OC(=O)[C@@](O)(CC)c3ccccc3)[C@@H]12)c1ccccc1 (some centres undefined) yielded a T/C (Mus musculus [7]) of 100%, a Survivors (Mus musculus [8]) of 6 and a T/C (Mus musculus [9]) of 107%. For the same compound, the Survivors (Mus musculus [10]) was 6, the T/C (Mus musculus [11]) was 109% and the Survivors (Mus musculus [12]) was 5. The Survivors (Mus musculus [13]) was 5 and the T/C (Mus musculus [14]) was 106%.

CCC(O)(C(=O)OCC1=CC[N+]2([O-])CC[C@H](OC(=O)[C@](O)(CC)c3ccccc3)[C@@H]12)c1ccccc1 (some centres undefined) gave a Survivors (Mus musculus [15]) of 5, a T/C (Mus musculus [16]) of 109% and a Survivors (Mus musculus [17]) of 6. The Survivors (Mus musculus [18]) was 6, the T/C (Mus musculus [19]) was 100% and the T/C (Mus musculus [20]) was 106%. For the same compound, the Survivors (Mus musculus [21]) was 6 and the T/C (Mus musculus [22]) was 127%.

CC(C)C(O)(C(=O)O[C@@H]1CCN2CC[C@H](CO)[C@H]12)C(C)O (some centres undefined) gave a Survivors (Mus musculus [23]) of 6, a T/C (Mus musculus [24]) of 107% and a T/C (Mus musculus [25]) of 111%. It also gave a T/C (Mus musculus [26]) of 105%, a T/C (Mus musculus [27]) of 98% and a Survivors (Mus musculus [28]) of 6. The Survivors (Mus musculus [29]) was 6, the Survivors (Mus musculus [30]) was 6 and the Weight difference (Mus musculus [31]) was -1.2.

Work on CC(C)C(O)(C(=O)OCC1CCN2CC[C@@H](O)[C@@H]12)C(C)O.CC(C)C(O)(C(=O)OCC1CC[N+]2([O-])CC[C@@H](O)[C@@H]12)C(C)O (some centres undefined) yielded a T/C (Mus musculus [1]) of 120%, a T/C (Mus musculus [2]) of 146% and a Survivors (Mus musculus [32]) of 6. For the same compound, the T/C (Mus musculus [33]) was 101%, the Survivors (Mus musculus [34]) was 5 and the T/C (Mus musculus [4]) was 118%. It also gave a Survivors (Mus musculus [35]) of 6 and a Survivors (Mus musculus [36]) of 6.
